Source: patent US11124554B2, “Modified ligand-gated ion channels and methods of use” (Howard Hughes Medical Institute, priority 2016, dated 2021)
“Also recorded” adds a separate entry of the source. Where two headings read alike, the source gives them in different places.

Key:
α7^Y115F,G175K-GlyR = molecular target: T1, α7^Y115F,G175K-GlyR (Homo sapiens, UniProt P36544, G175K/Y115F); experiment: Agonist potency at chimeric channel; type: cell-based; details: relative to α7^Y115F-GlyR
T1 construct: expressed in transfected cells

α7^Q79S,L131G-GlyR = molecular target: T2, α7^Q79S,L131G-GlyR (Homo sapiens, UniProt P36544, L131G/Q79S); experiment: Agonist potency at chimeric channel (Table 9); type: cell-based
T2 construct: expressed in transfected cells

α7^Y115F-GlyR G175F = molecular target: T3, α7^Y115F-GlyR G175F (Homo sapiens, UniProt P36544, G175F/Y115F); experiment: Agonist potency at chimeric channel (Table 8); type: cell-based; details: relative to α7^Y115F-GlyR
T3 construct: expressed in transfected cells

[1] = tested on: mouse cortical neurons transduced with α7^Q79G,Y115F,G175K-GlyR; experiment: Action potential firing of transduced cortical neurons; type: cell-based; details: 100 nM; current injection; restored after washout
From the text: FIGS. 8A-8C show activity of agonists on chimeric LGICs with a G175K mutation. FIG. 8A) A graph of EC50s for Q79G G175K LBD mutants against known agonists normalized to the unmodified α7-GlyR chimeric channel (log scale). […] Unmod.: unmodified α7-GlyR chimeric LGIC. FIG. 8C) Action potentials of cortical neurons from a mouse brain transduced with α7^Q79G,Y115F,G175K-GlyR chimeric LGIC. […] After washout (WASH) of tropisetron, neuron firing is restored
(§1) AAVs or DNA plasmids containing nucleic acids encoding a α7^Q79G-GlyR^A298G or α7Q79G,Y115F,G175K-GlyR chimeric LGICs were transduced into mouse cortical neurons. […] Neuron activity was silenced by application of low concentration of agonist (FIG. 7 and FIG. 8C).

[2] = tested on: α7GlyR chimeric channels with G175K and A298G mutations; type: cell-based, human; details: read-out: Agonist potency
α7^Y115F-GlyR G175R = molecular target: T4, α7^Y115F-GlyR G175R (Homo sapiens, UniProt P36544, G175R/Y115F); experiment: Agonist potency at chimeric channel (Table 8); type: cell-based; details: relative to α7^Y115F-GlyR
T4 construct: expressed in transfected cells

α7^L131G-5HT3 HC = experiment: Agonist potency at chimeric channel (Table 9); type: cell-based, human
α7^Q79S,L131G,Q139L-GlyR = molecular target: T5, α7^Q79S,L131G,Q139L-GlyR (Homo sapiens, UniProt P36544, L131G/Q139L/Q79S); experiment: cell-based; type: cell-based
T5 construct: expressed in transfected cells

α7^Y115F-GlyR G175V = molecular target: T6, α7^Y115F-GlyR G175V (Homo sapiens, UniProt P36544, G175V/Y115F); experiment: Agonist potency at chimeric channel (Table 8); type: cell-based; details: relative to α7^Y115F-GlyR
T6 construct: expressed in transfected cells

[3] = tested on: mouse cortical neurons transduced with α7^Q79G-GlyR^A298G; experiment: Action potential firing of transduced cortical neurons; type: cell-based; details: 30 nM; 40 pA current injection; restored after washout
From the text: After washout (WASH) of tropisetron, neuron firing is restored.
as §1

α7^Y115F-GlyR G175S = molecular target: T7, α7^Y115F-GlyR G175S (Homo sapiens, UniProt P36544, G175S/Y115F); experiment: Agonist potency at chimeric channel (Table 8); type: cell-based; details: relative to α7^Y115F-GlyR
T7 construct: expressed in transfected cells

[4] = tested on: mouse cortical neurons transfected with α7^L131G,Q139L,Y217F-GlyR; experiment: Action potential firing of transfected cortical neurons; type: cell-based; details: 10 nM; even with >6-fold greater injected current
From the text: FIGS. 9A-9D show activity of agonists on chimeric LGICs with a L131G mutation. FIG. 9A) A graph of EC50s for L131 LBD mutants against known agonists normalized to the unmodified α7-GlyR chimeric channel (log scale). […] Unmod.: unmodified α7-GlyR chimeric LGIC. FIG. 9D) Action potentials of a cortical neuron from a mouse brain transduced with α7^L131G,Q139L,Y217F-GlyR chimeric LGIC. […] After washout (WASH) of tropisetron, neuron firing is restored.
DNA plasmids containing nucleic acids encoding a α7L131G,Q139L,Y217F-GlyR chimeric LGICs were transfected into mouse cortical neurons. […] Neuron activity was silenced by application of low concentration of agonist (FIG. 9C).

[5] = molecular target: T8, α7^L131G,Q139L,Y217F-5HT3 HC (Homo sapiens, UniProt P36544, L131G/M226I/Q139L/T225I/Y217F); experiment: Agonist potency at chimeric channel (Table 9); type: cell-based; details: α7^L131G,Q139L,Y217F-5HT3 HC
T8 construct: expressed in transfected cells

α7^L131A-GlyR = molecular target: T9, α7^L131A-GlyR (Homo sapiens, UniProt P36544, L131A); experiment: Agonist potency at chimeric channel (Table 9); type: cell-based
T9 construct: expressed in transfected cells

α7^L131G,Y217F-GlyR = molecular target: T10, α7^L131G,Y217F-GlyR (Homo sapiens, UniProt P36544, L131G/Y217F); experiment: Agonist potency at chimeric channel (Table 9); type: cell-based
T10 construct: expressed in transfected cells

α7^L131G,Q139L-GlyR = molecular target: T11, α7^L131G,Q139L-GlyR (Homo sapiens, UniProt P36544, L131G/Q139L); experiment: Agonist potency at chimeric channel (Table 9); type: cell-based
T11 construct: expressed in transfected cells

[6] = molecular target: T12, α7^L131G,Q139L,Y217F-GlyR (Homo sapiens, UniProt P36544, L131G/Q139L/Y217F); experiment: cell-based; type: cell-based
T12 construct: expressed in transfected cells
T12 sequence (P36544 with tags, fused parts or gaps L131G/Q139L/Y217F): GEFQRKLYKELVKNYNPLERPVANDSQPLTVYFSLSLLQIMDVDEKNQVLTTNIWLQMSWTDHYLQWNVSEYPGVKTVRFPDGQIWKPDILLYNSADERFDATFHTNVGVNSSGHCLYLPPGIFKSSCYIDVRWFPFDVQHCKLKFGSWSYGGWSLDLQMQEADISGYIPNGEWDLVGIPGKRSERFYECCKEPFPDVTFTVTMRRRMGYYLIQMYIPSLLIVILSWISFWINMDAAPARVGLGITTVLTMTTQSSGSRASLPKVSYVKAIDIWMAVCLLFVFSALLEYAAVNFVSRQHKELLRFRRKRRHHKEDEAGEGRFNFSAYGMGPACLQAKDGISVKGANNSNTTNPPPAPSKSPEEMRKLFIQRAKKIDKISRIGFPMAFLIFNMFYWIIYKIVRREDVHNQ

T2 sequence (P36544 with tags, fused parts or gaps Q79S/L131G): as the sequence (P36544 with tags, fused parts or gaps L131G/Q139L/Y217F) above, with Q57S, L117Q, F195Y counted along it
T5 sequence (P36544 with tags, fused parts or gaps Q79S/L131G/Q139L): as the sequence (P36544 with tags, fused parts or gaps L131G/Q139L/Y217F) above, with Q57S, F195Y counted along it
T8 sequence (P36544 with tags, fused parts or gaps L131G/Q139L/Y217F/T225I/M226I limits assumed): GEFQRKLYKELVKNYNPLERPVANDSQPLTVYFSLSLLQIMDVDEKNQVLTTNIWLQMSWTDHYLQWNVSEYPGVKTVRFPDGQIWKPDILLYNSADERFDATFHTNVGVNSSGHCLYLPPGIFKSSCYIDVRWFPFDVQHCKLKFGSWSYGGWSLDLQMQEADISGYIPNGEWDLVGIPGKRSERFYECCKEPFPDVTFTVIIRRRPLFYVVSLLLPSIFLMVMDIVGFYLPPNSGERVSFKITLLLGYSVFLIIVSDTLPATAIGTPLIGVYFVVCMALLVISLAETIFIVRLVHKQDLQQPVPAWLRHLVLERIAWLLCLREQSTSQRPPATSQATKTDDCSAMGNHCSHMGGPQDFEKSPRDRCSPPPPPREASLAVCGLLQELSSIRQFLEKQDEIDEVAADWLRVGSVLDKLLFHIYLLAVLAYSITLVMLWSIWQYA
T10 sequence (P36544 with tags, fused parts or gaps L131G/Y217F): as the sequence (P36544 with tags, fused parts or gaps L131G/Q139L/Y217F) above, with L117Q counted along it
T6 sequence (P36544 with tags, fused parts or gaps Y115F/G175V): as the sequence (P36544 with tags, fused parts or gaps L131G/Q139L/Y217F) above, with Y93F, G109L, L117Q, G153V, F195Y counted along it
T1 sequence (P36544 with tags, fused parts or gaps Y115F/G175K): as the sequence (P36544 with tags, fused parts or gaps L131G/Q139L/Y217F) above, with Y93F, G109L, L117Q, G153K, F195Y counted along it
T4 sequence (P36544 with tags, fused parts or gaps Y115F/G175R): as the sequence (P36544 with tags, fused parts or gaps L131G/Q139L/Y217F) above, with Y93F, G109L, L117Q, G153R, F195Y counted along it
T9 sequence (P36544 with tags, fused parts or gaps L131A): as the sequence (P36544 with tags, fused parts or gaps L131G/Q139L/Y217F) above, with G109A, L117Q, F195Y counted along it
T7 sequence (P36544 with tags, fused parts or gaps Y115F/G175S): as the sequence (P36544 with tags, fused parts or gaps L131G/Q139L/Y217F) above, with Y93F, G109L, L117Q, G153S, F195Y counted along it
T11 sequence (P36544 with tags, fused parts or gaps L131G/Q139L): as the sequence (P36544 with tags, fused parts or gaps L131G/Q139L/Y217F) above, with F195Y counted along it
T3 sequence (P36544 with tags, fused parts or gaps Y115F/G175F): as the sequence (P36544 with tags, fused parts or gaps L131G/Q139L/Y217F) above, with Y93F, G109L, L117Q, G153F, F195Y counted along it

CN1[C@@H]2CC[C@H]1C[C@@H](OC(=O)c1c[nH]c3ccccc13)C2 [Tropisetron]
potency enhancement at α7^Y115F-GlyR by additional mutation G175K (α7^Y115F,G175K-GlyR): 5.6 fold | improved potency over α7-GlyR (α7^Q79S,L131G-GlyR; α7^Q79S,L131G-GlyR): 15 fold | potency enhancement at α7^Y115F-GlyR by additional mutation G175F (α7^Y115F-GlyR G175F): 2 fold | suppression of action potential firing [1]: silenced; also recorded: potently suppressed | EC50 ([2]; α7GlyR Q79G A298G G175K Y115F): 2.8 nM | EC50 ([2]; α7GlyR Q79G G175K A298G): 0.6 nM | potency enhancement at α7^Y115F-GlyR by additional mutation G175R (α7^Y115F-GlyR G175R): 5.8 fold | potency enhancement (α7^L131G-5HT3 HC; α7^L131G-5HT3 HC): 2.3 fold | improved potency over α7-GlyR (α7^Q79S,L131G,Q139L-GlyR; α7^Q79S,L131G,Q139L-GlyR): 3 fold | potency enhancement at α7^Y115F-GlyR by additional mutation G175V (α7^Y115F-GlyR G175V): 16.7 fold | suppression of action potential firing [3]: silenced; also recorded: potently suppressed | potency enhancement at α7^Y115F-GlyR by additional mutation G175S (α7^Y115F-GlyR G175S): 9.3 fold

c1cnc2cc3c(cc2n1)[C@@H]1CNC[C@H]3C1 [Varenicline]
suppression of action potential firing [4]: silenced; also recorded: potently suppressed | improved potency over α7-GlyR (α7^Q79S,L131G-GlyR): 89 fold | improved potency over a7-5HT3 [5]: 131 fold | potency enhancement (α7^L131A-GlyR): 8 fold | potency enhancement (α7^L131G-5HT3 HC): 16 fold | improved potency over α7-GlyR (α7^Q79S,L131G,Q139L-GlyR): 31 fold | potency enhancement over α7-GlyR (α7^L131G,Y217F-GlyR): 21 fold | potency enhancement over α7-GlyR (α7^L131G,Q139L-GlyR): 21 fold | improvement in potency over α7-GlyR [6]: 387 fold
